Data set [1] is described as follows: Plasma protein binding by ultrafiltration. Format: in vitro ADME, rat. The following applies: rat plasma spiked with 50 and 100 μM. How it is done:
(§1) The centrifugate (=free TRAM-34) was directly analyzed for TRAM-34 by HPLC-MS. The retentate was collected by inverting the filter into an Eppendorf tube and spinning at 14000 rpm for 15 min.

A further data set relates to plasma protein. Kind of data set: Plasma protein binding by ultrafiltration. Format: in vitro ADME, rat. How it is done:
as §1

In data set [2] the test system is experimental autoimmune encephalomyelitis (EAE). The following applies: mice; cited from earlier work.
For data set [3], the system named is middle cerebral artery occlusion (MCAO). As to the kind of experiment: MCAO with 7 days of reperfusion, treatment started 12 h after reperfusion. Format: in vivo, rat. The following applies: for mean infarct size (H&E defined lesion area): controls 22.6±3.6%. More on the design: key to neurological deficit, 4-score system: 0 = no deficit to 4 = most severe deficit; key to neurological deficit, 14-score system: 14-point limb placing score; lower = more severe deficit. An excerpt:
Adult male Wistar rats weighing 160-180 g were purchased from Charles River (Wilmington, Mass.), acclimatized to the new vivarium for 5-7 days and used for the surgery when they weighed 200-230 g. Rats were anesthetized using box induction with 5% isoflurane and then maintained on 0.5%-1.5% isoflurane in medical grade oxygen via a facemask. In order to assure consistent reduction of cerebral blood flow (CBF) throughout the procedure, we affixed a small hand-made adaptor for the Laser Doppler probe (Moor Instruments, Wilmington, Del.) to the surface of the skull. The center of the adapter was 5 mm lateral to the central fusion line and 2.5 mm posterior to bregma. Instant adhesive and dental cement were applied to the base and around the edges of the small plastic adapter to hold the Doppler probe. The adapter with the attached probe remained in place throughout the MCAO surgery to confirm continuous occlusion and later the establishment of reperfusion. Focal cerebral ischemia was then induced by occlusion of the left middle cerebral artery (MCA). The left common carotid artery was surgically exposed, the external carotid artery was ligated distally from the common carotid artery, and a silicone rubber coated nylon monofilament with a tip diameter of 0.43±0.02 mm (Doccol Corp., Redlands, Calif.) was inserted into the external carotid artery and advanced into the internal carotid artery to block the origin of the middle cerebral artery (when maximum CBF reduction observed). The filament was kept in place for 90 min and then withdrawn and removed from the blood vessel to restore blood supply. […] Neurological deficits were scored according to a 4-score test and a tactile and/or proprioceptive limb-placing test as follows: 1) 4-score test (higher score for more severe neurological deficits): 0=no apparent deficit; 1=contralateral forelimb is consistently flexed during suspension by holding the tail; 2=decreasing grip ability on the contralateral forelimb while tail pulled; 3=spontaneous movement in all directions but circling to contralateral side when pulled by the tail; 4=spontaneous contralateral circling or depressed level of consciousness. 2) 14-score limb placing test (lower score for more severe neurological deficits): Proprioception, forward extension, lateral abduction, and adduction were tested with vision or tactile stimuli. For visual limb placing, rats were held and slowly moved forward or lateral toward the top of a table. Normal rats placed both forepaws on the tabletop. Tactile forward and lateral limb placing were tested by lightly contacting the table edge with the dorsal or lateral surface of a rat's paw while avoiding whisker contact and covering the eyes to avoid vision. For proprioceptive hind limb placing, each rat was pushed along the edge of an elevated platform in order to test proprioceptive hind limb adduction. The paw was pulled down and away from the platform edge, and the ability to retrieve and place the paw on the table surface upon sudden release was assessed. For each test, limb placing scores were 0=no placing; 1=incomplete and/or delayed (>2 seconds) placing; or 2=immediate and complete placing. For each body side, the maximum summed visual limb placing score was 4 and the maximum summed tactile and proprioceptive limb placing score, including the platform test, was 10.
Rats were euthanized with an overdose of isoflurane. Blood samples for determination of electrolytes, pH, pCO2, glucose and hemoglobin (I-STAT; Abbott, Princeton, N.J.) were drawn from the vena cava and brains quickly removed and sectioned into eight 2-mm thick slices starting from the frontal pole. Slices were then fixed in 10% buffer formalin embedded in paraffin and sectioned at 5 Sections were stained with hematoxylin & eosin and scanned. […]

Data on 1 compound can be found in patent publication US20130281504A1, “Reduction of Microglia-Mediated Neurotoxicity by KCa3.1 Inhibition” (THE REGENTS OF THE UNIVERSITY OF CALIFORNIA, priority 2010, published 2013).

Molecules are shown by their SMILES. Where “and” joins values, the source holds several entries; their conditions need not be identical. Equal entries are not always repeated.

The compound `Clc1ccccc1C(c1ccccc1)(c1ccccc1)n1cccn1` [TRAM-34, 1-[(2-chlorophenyl)diphenylmethyl]-1H-pyrazole] gave a fraction unbound in data set [1] of 0.02. Moreover, the “unbound (=free) fraction” value in the data set with plasma protein (rat plasma) is 2.0±0.4% and 2%. In the data set on plasma protein (rat plasma spiked with 50 and 100 μM), this compound gave a plasma protein binding of 98%. Besides, in data set [2], the “experimental autoimmune encephalomyelitis (EAE)” value is on record as “treats”. The “neurological deficit, 14-score system” value was 4.8±0.63 in data set [3] (10 mg/kg group, 12 h after reperfusion (start of treatment), vehicle 4.3±0.94); 9.8±0.01 in data set [3] (10 mg/kg, 196 h (=7 days) after reperfusion, vehicle 7.5±0.46, P=0.004); 3.4±0.46 in data set [3] (40 mg/kg group, 12 h after reperfusion (start of treatment), vehicle 4.3±0.94); 11±0.38 and 12 in data set [3] (40 mg/kg, day-7 / 196 h after reperfusion, vehicle 7.5±0.46, P<0.001). Moreover, the “neurological deficit, 4-score system” value in data set [3] (10 mg/kg group, 12 hours after reperfusion (start of treatment), vehicle 3.1±0.20) is 3.3±0.50; in data set [3] (10 mg/kg, 196 h (=7 days) after reperfusion, vehicle 1.5±0.30, P=0.24), 0.8±0.10; in data set [3] (40 mg/kg group, 12 hours after reperfusion (start of treatment), vehicle 3.1±0.20), 3.0±0.80; in data set [3] (40 mg/kg, day-7 / 196 h after reperfusion, vehicle 1.5±0.30, P=0.02), 0.5 and 0.4±0.01. For the same compound, the “microglia activation (ED1+ area)” value in data set [3] (10 mg/kg, delayed administration) is recorded as “did not result in a significant reduction”. Further, in data set [3] (10 mg/kg, P=0.11, not significant), the brain shrinkage entry is “tended to reduce”. For the same compound, the “number of TUNEL-positive cells in cortex and striatum” value in data set [3] (10 mg/kg, P=0.143 cortex, 0.230 striatum) is reported as “did not reach statistical significance”. In addition, the “mean infarct size (H&E defined lesion area)” value is 11.3±2.8% in data set [3] (10 mg/kg, mean±SEM, P=0.039) and 8.1±1.9% in data set [3] (40 mg/kg, P=0.004). In addition, in data set [3] (40 mg/kg, P=0.0067 cortex, 0.033 striatum), the “number of apoptotic (TUNEL positive) cells in cortex and striatum” value is “significantly reduced”. In addition, the “average number of surviving NeuN+ neurons in the infarcted hemisphere” value in data set [3] (40 mg/kg, P=0.052) was “increase”. Further, the “ED1+ area in the infarcted hemisphere” value in data set [3] (40 mg/kg, vehicle 3770.6±594.2, P=0.03, mean±SEM) worked out at 1632.6±363.75 pixels/mm^2. In addition, the “reduction of infarct area (H&E, day-7)” value in data set [3] (10 or 40 mg/kg i.p. twice daily 7 days from 12 h after reperfusion, both doses) is about 50%.

A word on the fraction unbound: it is the share of the substance not bound to proteins or other matrix.
